# In patent publication US6383745B1, “Methods of screening for anti-microbial utilizing aarC and compositions thereof” (priority 1997, dated 2002):
# Legend:
# P. stuartii = conditions: cited from earlier work; for resistance rates being reported: P. stuartii, first- and second-generation cephalosporins susceptible to its β-lactamases
# P. stuartii PR500 = assay: Level of aminoglycoside resistance of strain PR500; type: cell-based, Providencia stuartii; conditions: PR500 (PR50 containing pR401 and pACYC184.aarG)
# Protocol: Therefore, strain PR500, which is a derivative of the wild-type P. stuartii PR50 [Rather, P. et al., J. Bacteriol. 175:6492-6498 (1993)], was used. PR500 was generated by introducing into PR50 both pR401 (aac(2′)-lacZ) and pACYC184.aarG, a compatible pACYC184 derivative containing the aarG gene. PR500 forms white colonies on plates containing X-gal and has levels of aminoglycoside resistance to 4 μg/ml of gentamicin. Selection of mutants was achieved by plating approximately 10^8 cells of PR500 on LB plates containing 15 μg/ml of gentamicin and X-gal (to select and identify regulatory mutants), ampicillin (150 μg/ml) to maintain pR401 and chloramphenicol (100 μg/ml) to maintain pACYC184.aarG. As observed previously, colonies arose at a frequency of […] [Rather, P. et al., J. Bacteriol. 175:6492-6498 (1993)]. […] While not limiting the present invention to any particular mechanism, these colonies presumably resulted from mutations in a trans-acting regulator of aac(2′)-la since expression of both the chromosomal copy of aac(2′)-la and the plasmid encoded aac(2′)-lacZ fusion were increased. One class of mutants which formed small blue colonies was identified and a representative isolate, PR60, was characterized. Introduction by electroporation (Gene Pulser, Biorad) of the previously cloned aarA, aarB, and aarD genes [Macinga, D. R. et al., Mol. Microbiol. […]
compound,measurement,setting,value
Cc1nnc(SCC2=C(C(=O)O)N3C(=O)[C@@H](NC(=O)Cn4cnnn4)[C@H]3SC2)s1 [cefazolin],resistance rates being reported,P. stuartii,94%
CC1=C(C(=O)O)N2C(=O)[C@@H](NC(=O)[C@H](N)c3ccccc3)[C@H]2SC1 [cephalexin],resistance rates being reported,P. stuartii,100%
O=C(Cc1cccs1)N[C@@H]1C(=O)N2C(C(=O)[O-])=C(C[n+]3ccccc3)CS[C@H]12 [cephaloridine],resistance rates being reported,P. stuartii,82%
CC(=O)OCC1=C(C(=O)O)N2C(=O)[C@@H](NC(=O)Cc3cccs3)[C@H]2SC1 [cephalothin],resistance rates being reported,P. stuartii,97%
gentamicin,levels of aminoglycoside resistance,P. stuartii PR500,4 µg/mL
same,proportions of P. stuartii resistant,"P. stuartii; both in wards where the drug is widely used and in others (e.g., geriatric wards) where it was not used",80-100%
